{"source": "patent US20250223171A1", "about": "“ALLOTROPE OF CARBON HAVING INCREASED ELECTRON DELOCALIZATION” (Structured Nano Carbon LLC, priority 2017, published 2025)", "key": {"[1]": {"tested_on": "rat", "conditions": "cited from earlier work"}, "[2]": {"assay": "Antioxidant behavior of C60 fullerene compared with vitamin C (reported)", "conditions": "60 atoms for C60 fullerene versus six for vitamin C", "source_text": "Antioxidant behavior has been reported in C60 fullerene as being 172 times that of vitamin C or ascorbic acid.\nThe reported factor of 172 times greater than vitamin C can be partially explained by C60 fullerene having 60 carbons over which electron delocalization can proceed versus only six atoms of a mixture of half and half carbon and oxygen for vitamin C. If it were just numbers of atoms over which electron delocalization proceeds in its effectiveness in stabilizing unpaired electrons arising from ROS, one would expect that the potency of C60 fullerene would be only ten times that of vitamin C. Phenolics involve only seven atoms for stabilizing unpaired electrons of six carbons from the benzene ring plus the phenolic oxygen atom and thus C60 fullerene would then be expected to be a bit less than ten times that of phenolic antioxidants.\nThe reported 172 factor superiority of C60 fullerene in antioxidant behavior over vitamin C or ascorbic acid cannot be accounted for on the basis of individual atoms involved in the delocalization network alone. […] So, there must be something exceptional about the electron delocalization involving 3D fullerene concentric shells over 2D ascorbic acid or phenolics. There are several explanations for the superiority of 3D fullerene systems especially of the fullerene CNO systems: […]"}}, "data": [{"compound": "c12c3c4c5c1c1c6c7c2c2c8c3c3c9c4c4c%10c5c5c1c1c6c6c%11c7c2c2c7c8c3c3c8c9c4c4c9c%10c5c5c1c1c6c6c%11c2c2c7c3c3c8c4c4c9c5c1c1c6c2c3c41", "note": "[C60 fullerene]", "values": [{"measurement": "life expectancy", "setting": "[1]", "result": "nearly doubling of life expectancy"}, {"measurement": "superiority in antioxidant behavior over ascorbic acid, taking into account the number of atoms in the electron delocalization network", "setting": "[2]", "result": 17.2, "unit": "factor"}]}]}
